Laboratory results as given in patent EP0986381B1, “USE OF DITERPENES LIKE HYPOESTOXIDES FOR THE MANUFACTURE OF A MEDICAMENT FOR IMMUNOSUPPRESSION, ANTICANCER AND ANTIVIRAL TREATMENT” (Immune Modulation, Inc., priority 1997, dated 1998).

What was measured:
IL-1β, TNF-α, and IL-6 = experiment: LPS-induced pro-inflammatory cytokine synthesis in PBMC, enzyme immunoassay; assay type: cell-based, human; settings: 1 µg/mL JO-4, LPS-stimulated PBMC
Description: Human peripheral blood mononuclear cells (PBMC) were cultured with B-cell mitogen LPS (Gibco BRL, Grand Island, NY) 3 µg/mL) at 2 x 10^6/mL in 1.0 mL volumes in 24-well plates in the presence of either 1 µg/mL JO-4 or medium for 48 hr. In a 37°C incubator with 5% CO2. Culture supernatants were collected at the end of incubation period and were assayed by enzyme immunoassay for the presence of the cytokines: interleukin-1β,-6 and TNF-α. Results are expressed as inhibition of cytokine production.

HSV-1 = experiment: In vitro HSV-1 replication assay, Hybriwix Probe Systems; assay type: cell-based, Herpes simplex virus; settings: Human alphaherpesvirus 1, 48 h, two days, African green monkey kidney cells
Description: The antiviral activity of the drug was determined using the Hybriwix™ Probe Systems (Herpes Antiviral Susceptibility Test kit: Diagnostic Hybrids, Inc., Athens, OH). Briefly, either HSV-1 or HSV-2 isolates (ATTC, Rockville, MD) were pre-adsorbed at 37°C and 5% CO2 in a humidified incubator for 60 minutes on African green monkey Kidney cells in a 24-well flat-bottom plate. Following pre-adsorption, the viral inoculum was removed and the growth medium containing various concentrations of appropriate drug was placed in appropriate wells. The culture was continued for 48 hours for the amplification of the virus. Quantification of the HSV DNA present in each well was determined by the nucleic acid hybridization method. The cells and/or virus were lysed with DNA wicking agent and the single-stranded DNA was immobilized on a Hybriwix™ filter by a vertical capillary absorption of the wicking agent/DNA solution. The amount of HSV target DNA from each well was determined using radioactive (I^125)-HSV DNA probe containing genetic sequences, which are homologous to HSV-1 or HSV-2 sequences. The amount of radioactivity present on the Hybriwix™ was dependent upon the amount of HSV DNA present after culture, and was determined in a gamma counter (Packard Instrument Co., Meriden, CT).

NK activity = NK activity in vivo, spleen cells against YAC-1 targets, 51Cr-release; parameters: species or system Mice
B16-F1 melanoma tumor = B16-F1 melanoma tumor growth and survival in mice; assay type: in vivo, C57BL/6 (B6) mice; settings: for survival of mice: day 28
Description: The following materials and methods were employed in the non-limiting Examples set out below. Tumor cells: Human cervical epitheloid carcinoma (HeLa), human renal clear cell carcinoma (CAKI-1), human malignant melanoma (RPMI-7951) and mouse malignant melanoma (B16-F1) were procured from ATCC (Rockville, MD) and maintained in vitro with MEM medium (Mediatech, Inc., Herndon, VA) supplemented with 10% heat-inactivated fetal bovine serum (American Qualex, San Clemente, CA), 10mM glutamine, 100 U/ml penicillin, and 100 µg/ml streptomycin (Sigma Chemicals, Saint Louis, MO) (complete medium). Normal cells: Normal human cervical ectoepithelial cells (CrEc-Ec), normal human mammary epithelial cells (HMEC) and normal human umbilical vein endothelial cells (HUVEC) were obtained from Clonetics (San Diego, CA) and cultured with the respective recommended tissue culture medium obtained from Clonetics. Peripheral Blood Mononuclear cells (PBMC): Heparinized venous blood was obtained from healthy adult volunteers and PBMC were separated by centrifugation over Ficoll-Hypaque (Pharmacia Biotech, Piscataway, NJ). The cells were washed three times with HBSS (Hanks Balanced Salt Solution) and finally resuspended in complete medium. Cell viability was assessed by trypan blue dye exclusion test and the cell number was adjusted to required concentration. Colorimetric MTT assay: Cytotoxic effects of the hypoestoxide compounds of formulas I and II (JO-4A) were determined in vitro by a colorimetric assay (Mosmann, T., J. Immunol. Methods, 65: 55-63, 1983). Briefly, 1000 cells per well (100 µl) in a 96-well flat-bottom plate were cultured either with the culture medium alone or with various concentrations of drug at 37°C, in a 5% CO2-95% air humidified incubator for 72 hours. At the end of the culture, 10 µl of 5 mg/ml sterile solution of 3-(4,5-Dimethylthiazol-2yl)-2,5-diphenyltetrazolium bromide (MTT) (Sigma Chemicals, Saint Louis, MO) in PBS was added per well and the incubation was resumed for an additional 4 hours. Acid-isopropanol (100 µl of 0.04 N HCl in isopropanol) was added to all wells and kept at room temperature for 30 minutes. Mixing with a multichannel pipetter dissolved the dark blue crystals and the absorbance was measured at 545-650 nm using an ELISA plate reader. Mice: Eight-week-old female C57BL/6 (B6) mice were purchased from Charles River Laboratories (Wilmington, MA. The measurement of tumor volume in mice: B16-F1 melanoma cells growing exponentially in vitro were harvested by 15 minutes incubation with 0.25% trypsin-EDTA solution (Irvin Scientific, Irvine, CA). The mice were given subcutaneous (s.c.) injections of 50,000 viable cells on the right side (Fidler, I. J. Cancer Research 35:218-224, 1975). Four days after injection, the mice in the experimental group were gavaged orally with various concentrations of JO-4A in 0.2 ml of water and the control group received water alone. The tumors were measured with a microcaliper, and the tumor volume was calculated by the formula: Length x width x height x 0.5236 (Jungwirth, A. et al., Proc. Natl. Acad. Sci. USA, 94:5810-5813, 1997). Statistical analysis: Students' t-test was used to calculate the level of significance.

For C=C1C(=O)C[C@H]2C[C@@H]3O[C@@]3(C)CC[C@@H]3O[C@@]3(C)C[C@@H](OC(C)=O)[C@H]1C2(C)C [JO-4, hypoestoxide], the “effect on pro-inflammatory cytokine synthesis” value (IL-1β, TNF-α, and IL-6) was “inhibitory or immunosuppressant effect”, the inhibition at 3.125 µM (HSV-1; 3.125 µM) was 53% and the inhibition at 12.5 µM (HSV-1; 12.5 µM) was 60%. For the same compound, the IC50 (HSV-1; read-out: IC50 dose on HSV-1 inhibition) was about 3.12 µM.

C=C1C(=O)CC2CC3OC3(C)CCC3OC3(C)CC(O)C1C2(C)C (stereo not drawn) [JO-4A] was tested, and the “NK activity in vivo” value (NK activity; intravenous administration) was “inhibited”, the “NK activity in vivo” value (NK activity; oral administration) was “inhibited” and the survival of mice (B16-F1 melanoma tumor; 0.1 mg/Kg orally daily day 4 to day 20) was 17%. It also gave a survival of mice (B16-F1 melanoma tumor; 0.5 mg/Kg orally daily day 4 to day 20) of 60%, a survival of mice (B16-F1 melanoma tumor; 1 mg/Kg orally daily day 4 to day 20) of 67% and a survival of mice (B16-F1 melanoma tumor; 2 mg/Kg orally daily day 4 to day 20) of 84%. The “survival compared with non-treated group” value (B16-F1 melanoma tumor; 2 mg/Kg orally, treatment stopped on day 20) was “survived longer” and the tumor volume (B16-F1 melanoma tumor; oral, daily from day 4 post tumor implantation, all four concentrations tested, measured day 12) was “significantly reduced”.
